Assay [1] addresses T1, EGFR L858R/T790M/C797S (BaF3-LTC cells) (Homo sapiens, UniProt P00533, C797S/L858R/T790M).
T1 construct: expressed in transfected cells; host or cells: BaF3
As to the kind of experiment: EGFR degradation HTRF assay, BaF3-LTC cells. It counts as cell-based. The note with it: BaF3-LTC cells; for DC50: EGFR degradation, IC50 (DC50) from curve fit, read-out: DC50(nM) BaF3-LTC; for Dmax: maximum percentage of inhibition (degradation), read-out: Dmax (%) BaF3-LTC. The method, boiled down: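 Cells treated 16 h at 37 °C, 5% CO2 in medium with 0.2% DMSO; top final concentration 10 uM, 5-fold dilution, 8 doses. Lysates read by HTRF (665/620 nm); degradation % versus DMSO high control, DC50 from four-parameter fit, Dmax as maximal degradation.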

In assay [2] the test system is EGFR Del19/T790M/C797S (H1975-clone #28). As to the kind of experiment: EGFR degradation HTRF assay, H1975-clone #28 DTC cells. It counts as cell-based. The note with it: H1975 # 28 DTC cells; for DC50: EGFR degradation, IC50 (DC50) from curve fit, read-out: DC50(nM) H1975 # 28 DTC; for Dmax (%) H1975 # 28 DTC: maximum percentage of inhibition (degradation). The method, boiled down: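 Read-out is an HTRF EGFR signal (337 nm excitation, 665/620 nm) from lysates of mutant-EGFR H1975 clones in which only the exogenous EGFR survives knockout. Treatment ran 16h at 37° C. from 10 uM final downward in 5-fold steps. DC50 comes from a logistic fit and Dmax is the maximal degradation.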
(In general: In TR-FRET formats the signal depends on donor and acceptor labels being close together.)

One may read the DC50 as the midpoint of the concentration-degradation curve. Broadly, the Dmax is the greatest extent of degradation seen.

T1 sequence (P00533 25-1210 T790M/C797S/L858R): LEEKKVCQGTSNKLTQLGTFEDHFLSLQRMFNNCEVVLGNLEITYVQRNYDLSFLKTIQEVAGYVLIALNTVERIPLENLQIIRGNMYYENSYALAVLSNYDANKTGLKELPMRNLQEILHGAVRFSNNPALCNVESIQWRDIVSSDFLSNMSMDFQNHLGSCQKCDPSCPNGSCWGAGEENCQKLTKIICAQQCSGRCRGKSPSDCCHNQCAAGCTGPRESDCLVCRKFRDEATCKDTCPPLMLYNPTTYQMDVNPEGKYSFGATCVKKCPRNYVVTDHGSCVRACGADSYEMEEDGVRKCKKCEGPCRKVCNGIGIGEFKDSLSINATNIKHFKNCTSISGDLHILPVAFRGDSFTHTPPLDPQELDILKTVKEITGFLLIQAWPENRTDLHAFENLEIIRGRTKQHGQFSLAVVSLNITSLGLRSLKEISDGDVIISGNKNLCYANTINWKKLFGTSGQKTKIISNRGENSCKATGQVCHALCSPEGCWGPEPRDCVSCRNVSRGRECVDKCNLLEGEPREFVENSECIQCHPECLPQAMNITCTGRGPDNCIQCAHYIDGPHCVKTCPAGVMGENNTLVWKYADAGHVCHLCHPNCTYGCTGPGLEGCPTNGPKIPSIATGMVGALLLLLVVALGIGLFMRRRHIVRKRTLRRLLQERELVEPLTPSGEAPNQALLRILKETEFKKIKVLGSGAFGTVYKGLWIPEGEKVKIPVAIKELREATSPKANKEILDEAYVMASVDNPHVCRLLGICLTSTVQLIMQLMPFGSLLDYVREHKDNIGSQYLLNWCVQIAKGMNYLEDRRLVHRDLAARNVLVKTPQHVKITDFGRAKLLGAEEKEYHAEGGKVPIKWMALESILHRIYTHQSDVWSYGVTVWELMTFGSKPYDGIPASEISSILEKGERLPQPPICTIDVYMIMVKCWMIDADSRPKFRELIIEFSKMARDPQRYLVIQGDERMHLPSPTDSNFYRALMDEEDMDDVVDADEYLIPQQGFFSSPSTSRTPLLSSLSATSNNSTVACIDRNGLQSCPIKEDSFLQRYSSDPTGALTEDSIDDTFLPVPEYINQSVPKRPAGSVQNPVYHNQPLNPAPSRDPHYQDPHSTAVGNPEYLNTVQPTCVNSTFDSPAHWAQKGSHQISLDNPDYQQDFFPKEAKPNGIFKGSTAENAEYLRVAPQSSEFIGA

Turning to `CCOc1cc(N2CCC(N3CCN(CCc4cc5oc(=O)n(C6CCC(=O)NC6=O)c5cc4Cl)CC3)CC2)c(CC)cc1Nc1ncc(Br)c(Nc2ccc3c(=O)n(CC)ncc3c2P(C)(C)=O)n1` (stereo not shown) [Example 626, 3-(6-(2-(4-(1-(4-((5-bromo-4-((5-(dimethylphosphoryl)-2-ethyl-1-oxo-1,2-dihydrophthalazin-6-yl)amino)pyrimidin-2-yl)amino)-5-ethoxy-2-ethylphenyl)piperidin-4-yl)piperazin-1-yl)ethyl)-5-chloro-2-oxobenzo[d]oxazol-3(2H)-yl)piperidine-2,6-dione], in assay [1], the DC50 was 5.43 nM and the Dmax is 91%. In assay [2], the DC50 came out at 0.711 nM and the “Dmax (%) H1975 # 28 DTC” value stood at 76.73%.

Consider `CCOc1cc(N2CCC(N3CCN(CCc4cc5oc(=O)n(C6CCC(=O)NC6=O)c5cc4Cl)CC3)CC2)c(CC)cc1Nc1ncc(Br)c(Nc2ccc3nc(CC)ccc3c2P(C)(C)=O)n1` (stereo not shown) [Example 627, 3-(6-(2-(4-(1-(4-((5-bromo-4-((5-(dimethylphosphoryl)-2-ethylquinolin-6-yl)amino)pyrimidin-2-yl)amino)-5-ethoxy-2-ethylphenyl)piperidin-4-yl)piperazin-1-yl)ethyl)-5-chloro-2-oxobenzo[d]oxazol-3(2H)-yl)piperidine-2,6-dione], for which, in assay [1], the DC50 turned out to be 9.13 nM and the Dmax was determined as 94.5%. Also, in assay [2], the DC50 amounted to 1.23 nM and the “Dmax (%) H1975 # 28 DTC” value was determined as 76.26%.

With `CCOc1cc(N2CCC(N3CCN(CCc4cc5oc(=O)n(C6CCC(=O)NC6=O)c5cc4F)CC3)CC2)c(CC)cc1Nc1ncc(Br)c(Nc2ccc3c(=O)n(CC)ncc3c2P(C)(C)=O)n1` (stereo not shown) [Example 628, 3-(6-(2-(4-(1-(4-((5-bromo-4-((5-(dimethylphosphoryl)-2-ethyl-1-oxo-1,2-dihydrophthalazin-6-yl)amino)pyrimidin-2-yl)amino)-5-ethoxy-2-ethylphenyl)piperidin-4-yl)piperazin-1-yl)ethyl)-5-fluoro-2-oxobenzo[d]oxazol-3(2H)-yl)piperidine-2,6-dione], in assay [1], the DC50 worked out at 3.24 nM and the Dmax came out at 92.3%. In addition, in assay [2], the DC50 was 0.715 nM and the “Dmax (%) H1975 # 28 DTC” value amounted to 76.12%.

For `CCOc1cc(N2CCC(N3CCN(CCc4c(F)cc5c(oc(=O)n5C5CCC(=O)NC5=O)c4F)CC3)CC2)c(CC)cc1Nc1ncc(Br)c(Nc2ccc3c(=O)n(CC)ncc3c2P(C)(C)=O)n1` (stereo not shown) [Example 629, 3-(6-(2-(4-(1-(4-((5-bromo-4-((5-(dimethylphosphoryl)-2-ethyl-1-oxo-1,2-dihydrophthalazin-6-yl)amino)pyrimidin-2-yl)amino)-5-ethoxy-2-ethylphenyl)piperidin-4-yl)piperazin-1-yl)ethyl)-5,7-difluoro-2-oxobenzo[d]oxazol-3(2H)-yl)piperidine-2,6-dione], in assay [1], the DC50 worked out at 7.66 nM and the Dmax was 89.5%. In addition, in assay [2], the DC50 was 0.965 nM and the “Dmax (%) H1975 # 28 DTC” value worked out at 71.58%.

As to `CCOc1cc(N2CCC(N3CCN(CCCc4cccc5c4oc(=O)n5C4CCC(=O)NC4=O)CC3)CC2)c(CC)cc1Nc1ncc(Br)c(Nc2ccc3nc(CC)ccc3c2P(C)(C)=O)n1` (stereo not shown) [Example 630, 3-(7-(3-(4-(1-(4-((5-bromo-4-((5-(dimethylphosphoryl)-2-ethylquinolin-6-yl)amino)pyrimidin-2-yl)amino)-5-ethoxy-2-ethylphenyl)piperidin-4-yl)piperazin-1-yl)propyl)-2-oxobenzo[d]oxazol-3(2H)-yl)piperidine-2,6-dione], in assay [1], the 50% degradation concentration (DC50) was determined as 8.65 nM and the Dmax amounted to 91%. In assay [2], the DC50 stood at 1.14 nM and the “Dmax (%) H1975 # 28 DTC” value is listed as 72.34%.

As to `CCc1ccc2c(P(C)(C)=O)c(Nc3nc(Nc4cc(C5CC5)c(N5CCC(N6CCN(CCc7cccc8c7oc(=O)n8C7CCC(=O)NC7=O)CC6)CC5)cc4OC)ncc3Br)ccc2n1` (stereo not shown) [Example 631, 3-(7-(2-(4-(1-(4-((5-bromo-4-((5-(dimethylphosphoryl)-2-ethylquinolin-6-yl)amino)pyrimidin-2-yl)amino)-2-cyclopropyl-5-methoxyphenyl)piperidin-4-yl)piperazin-1-yl)ethyl)-2-oxobenzo[d]oxazol-3(2H)-yl)piperidine-2,6-dione], in assay [1], the DC50 was found to be 9.33 nM and the Dmax stood at 86.8%. Moreover, in assay [2], the DC50 came to 1.04 nM and the “Dmax (%) H1975 # 28 DTC” value was determined as 82.5%.

For the compound `CCOc1cc(N2CCC(N3CCN(CCCCc4cc(F)cc5c4oc(=O)n5C4CCC(=O)NC4=O)CC3)CC2)c(CC)cc1Nc1ncc(Br)c(Nc2ccc3nc(CC)ccc3c2P(C)(C)=O)n1` (stereo not shown) [Example 632, 3-(7-(4-(4-(1-(4-((5-bromo-4-((5-(dimethylphosphoryl)-2-ethylquinolin-6-yl)amino)pyrimidin-2-yl)amino)-5-ethoxy-2-ethylphenyl)piperidin-4-yl)piperazin-1-yl)butyl)-5-fluoro-2-oxobenzo[d]oxazol-3(2H)-yl)piperidine-2,6-dione], in assay [1], the DC50 turned out to be 14.2 nM and the Dmax came to 95.1%. In assay [2], the DC50 worked out at 2.2 nM and the “Dmax (%) H1975 # 28 DTC” value is 81.77%.

With `CCc1cc(Nc2ncc(Br)c(Nc3ccc4nc(NC5CC5)ccc4c3P(C)(C)=O)n2)c(OC)cc1N1CCC(N2CCN(CCc3ccc4c(c3)oc(=O)n4C3CCC(=O)NC3=O)CC2)CC1` (stereo not shown) [Example 633, 3-(6-(2-(4-(1-(4-((5-bromo-4-((2-(cyclopropylamino)-5-(dimethylphosphoryl)quinolin-6-yl)amino)pyrimidin-2-yl)amino)-2-ethyl-5-methoxyphenyl)piperidin-4-yl)piperazin-1-yl)ethyl)-2-oxobenzo[d]oxazol-3(2H)-yl)piperidine-2,6-dione], in assay [1], the DC50 was determined as 5.12 nM and the Dmax was 91.7%. In assay [2], the half-maximal degradation concentration (DC50) is 0.737 nM and the “Dmax (%) H1975 # 28 DTC” value turned out to be 70.09%.

Regarding `CCOc1cc(N2CCC(N3CCN(CCc4c(C)ccc5c4oc(=O)n5C4CCC(=O)NC4=O)CC3)CC2)c(CC)cc1Nc1ncc(Br)c(Nc2ccc3nc(CC)ccc3c2P(C)(C)=O)n1` (stereo not shown) [Example 634, 3-(7-(2-(4-(1-(4-((5-bromo-4-((5-(dimethylphosphoryl)-2-ethylquinolin-6-yl)amino)pyrimidin-2-yl)amino)-5-ethoxy-2-ethylphenyl)piperidin-4-yl)piperazin-1-yl)ethyl)-6-methyl-2-oxobenzo[d]oxazol-3(2H)-yl)piperidine-2,6-dione], in assay [1], the DC50 came to 4.47 nM and the Dmax worked out at 88%. In assay [2], the DC50 is 0.985 nM and the “Dmax (%) H1975 # 28 DTC” value was determined as 81.71%.

Take `CCOc1cc(N2CCC(N3CCN(CCc4c(F)cc5c(oc(=O)n5C5CCC(=O)NC5=O)c4F)CC3)CC2)c(CC)cc1Nc1ncc(Br)c(Nc2ccc3nc(CC)ccc3c2P(C)(C)=O)n1` (stereo not shown) [Example 635, 3-(6-(2-(4-(1-(4-((5-bromo-4-((5-(dimethylphosphoryl)-2-ethylquinolin-6-yl)amino)pyrimidin-2-yl)amino)-5-ethoxy-2-ethylphenyl)piperidin-4-yl)piperazin-1-yl)ethyl)-5,7-difluoro-2-oxobenzo[d]oxazol-3(2H)-yl)piperidine-2,6-dione]: in assay [1], the DC50 was found to be 11 nM and the Dmax was found to be 90.7%. Further, in assay [2], the DC50 amounted to 1.37 nM and the “Dmax (%) H1975 # 28 DTC” value is 77.57%.

The values above are taken from patent publication US20230265116A1, “DEGRADATION OF (EGFR) BY CONJUGATION OF EGFR INHIBITORS WITH E3 LIGASE LIGAND AND METHODS OF USE” (BEIGENE, LTD., priority 2020, published 2023).
